Source: US6844347B1, “Substituted 4-amino-2aryl-pyrimidines, their production and use and pharmaceutical preparations containing same” (Aventis Pharma Deutschland GmbH, priority 1998, dated 2005)

Molecular target: T1, soluble guanylate cyclase (sGC) (Bos taurus, UniProt P16068+P19687)
T1 construct: The sGC employed had been isolated from bovine lung; from tissue; host or cells: bovine lung
T1 sequence (P19687 1-691): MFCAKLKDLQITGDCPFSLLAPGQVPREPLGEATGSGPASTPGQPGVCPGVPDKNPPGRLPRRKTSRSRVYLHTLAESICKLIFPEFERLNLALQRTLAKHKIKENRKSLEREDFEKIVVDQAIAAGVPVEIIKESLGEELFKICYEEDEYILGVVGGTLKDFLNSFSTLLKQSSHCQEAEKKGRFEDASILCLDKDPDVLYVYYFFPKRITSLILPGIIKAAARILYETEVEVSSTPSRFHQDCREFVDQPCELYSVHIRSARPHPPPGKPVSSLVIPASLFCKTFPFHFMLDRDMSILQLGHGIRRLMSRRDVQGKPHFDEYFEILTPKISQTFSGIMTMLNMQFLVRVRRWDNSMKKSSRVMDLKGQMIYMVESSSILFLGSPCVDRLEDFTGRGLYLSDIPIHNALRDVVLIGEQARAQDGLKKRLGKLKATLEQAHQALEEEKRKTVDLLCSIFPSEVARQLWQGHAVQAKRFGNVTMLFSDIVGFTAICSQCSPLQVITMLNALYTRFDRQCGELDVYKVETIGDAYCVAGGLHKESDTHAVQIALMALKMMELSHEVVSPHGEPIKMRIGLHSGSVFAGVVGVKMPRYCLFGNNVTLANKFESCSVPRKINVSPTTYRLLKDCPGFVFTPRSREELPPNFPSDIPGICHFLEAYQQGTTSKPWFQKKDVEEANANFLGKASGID
T1 sequence (P16068 1-619): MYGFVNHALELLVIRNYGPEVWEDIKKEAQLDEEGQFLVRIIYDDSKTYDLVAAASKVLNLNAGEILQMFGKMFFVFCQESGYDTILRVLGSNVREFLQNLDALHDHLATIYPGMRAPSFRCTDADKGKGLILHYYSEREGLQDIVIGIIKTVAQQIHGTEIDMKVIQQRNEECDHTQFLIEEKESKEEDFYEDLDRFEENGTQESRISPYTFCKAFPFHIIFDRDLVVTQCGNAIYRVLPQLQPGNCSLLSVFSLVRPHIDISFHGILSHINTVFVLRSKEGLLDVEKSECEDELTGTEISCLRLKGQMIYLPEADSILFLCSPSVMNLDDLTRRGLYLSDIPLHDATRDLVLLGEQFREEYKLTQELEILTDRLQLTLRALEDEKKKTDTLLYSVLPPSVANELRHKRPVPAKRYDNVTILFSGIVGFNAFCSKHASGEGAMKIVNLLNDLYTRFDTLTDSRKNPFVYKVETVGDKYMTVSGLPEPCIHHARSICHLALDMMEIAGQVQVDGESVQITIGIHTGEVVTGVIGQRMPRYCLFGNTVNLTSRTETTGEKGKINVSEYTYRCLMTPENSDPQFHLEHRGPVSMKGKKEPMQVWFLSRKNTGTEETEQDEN
Assay: Activation of soluble guanylate cyclase (cGMP enzyme immunoassay)
Format: biochemical
Conditions: test substance 50 μM; sGC isolated from bovine lung; [cGMP]test substance/[cGMP]control (basal activity with solvent); 37° C., 15 to 20 minutes
Procedure: The activation of soluble guanylate cyclase (sGC), which catalyzes the conversion of guanosine triphosphate (GTP) to cyclic guanosine monophosphate (cGMP) and pyrophosphate, by the compounds according to the invention was quantified with the aid of an enzyme immunoassay (EIA) from Amersham. For this, the test substances were first incubated with sGC in microtiter plates and then the quantity of the resulting cGMP was determined.
The sGC employed had been isolated from bovine lung (see Methods in Enzymology, Volume 195, p. 377). The test solutions (100 μl per well) contained 50 mM triethanolamine (TEA) buffer (pH 7.5), 3 mM MgCl2, 3 mM reduced glutathione (GSH), 0.1 mM GTP, 1 mM 3-isobutyl-1-methylxanthine (IBMX), suitably diluted enzyme solution and the test substance or, in the control experiments, solvent. The test substances were dissolved in dimethyl sulfoxide (DMSO) and the solution was diluted with DMSO/water such that the final concentration c of test substance in the test batch was 50 μM. The DMSO concentration in the test batch was 5% (v/v). The reaction was started by addition of the sGC. The reaction mix was incubated at 37° C. for 15 to 20 minutes and then stopped by ice-cooling and addition of the stop reagent (50 mM EDTA, pH 8.0). An aliquot of 50 μl was taken and employed for the determination of the cGMP content using the acetylation protocol of the Amersham cGMP EIA kit. The absorption of the samples was measured at 450 nm (reference wavelength 620 nm) in a microtiter plate reading apparatus. The cGMP concentration was determined by means of a calibration curve, which was obtained under the same experimental conditions. The activation of the sGC by a test substance is indicated as n-fold stimulation of the basal enzyme activity which was found in the control experiments (with solvent instead of test substance) (calculated according to the formula n-fold stimulation=[cGMP]test substance/[cGMP]control).

n-fold stimulation at c = 50 μM [n-fold]	Structure (SMILES)
>8	COCCCNc1cc(C(C)C)nc(-c2ccc(C)cc2)n1 [Example 23]
28	Cc1ccc(-c2nc(NC3CCC(O)CC3)cc(C(C)C)n2)cc1 (stereo not drawn) [Example 25]
>4	CC(C)c1cc(N2CCCC2)nc(-c2ccc(Cl)cc2)n1.Cl [Example 29]
>4	CC(C)c1cc(N2CCSCC2)nc(-c2ccc(Cl)cc2)n1.Cl [Example 30]
>4	CCCCNc1cc(C(C)C)nc(-c2ccc(Cl)cc2)n1 [Example 32]
>16	CCN(CC)c1cc(C(C)C)nc(-c2ccc(Cl)cc2)n1 [Example 33]
>4	CCCCN(CCCC)c1cc(C(C)C)nc(-c2ccc(Cl)cc2)n1.Cl [Example 34]
>16	CCCN(CCC)c1cc(C(C)C)nc(-c2ccc(Cl)cc2)n1.Cl [Example 35]
>8	C=CCN(CC=C)c1cc(C(C)C)nc(-c2ccc(Cl)cc2)n1 [Example 36]
>8	CC(C)c1cc(N2CCCCCC2)nc(-c2ccc(Cl)cc2)n1 [Example 38]
>4	CCN(Cc1ccccc1)c1cc(C(C)C)nc(-c2ccc(Cl)cc2)n1 [Example 43]
>4	CC(C)c1cc(N2CCC(C(N)=O)CC2)nc(-c2ccc(Cl)cc2)n1 [Example 44]
>4	CC(C)c1cc(N2CCSC2)nc(-c2ccc(Cl)cc2)n1 [Example 45]
>8	CC(C)(C)c1cc(N2CCOCC2)nc(-c2ccc(Cl)cc2)n1 [Example 52]
>4	CCN(CC)c1cc(-c2ccccc2)nc(-c2ccc(Cl)cc2)n1 [Example 63]
>4	CC(C)(C)c1cc(N2CCSCC2)nc(-c2ccc(Cl)cc2)n1 [Example 66]
>4	CCCN(CCC)c1cc(-c2ccccc2)nc(-c2ccc(Cl)cc2)n1 [Example 69]
30	CC(C)c1cc(NC2CCC(O)CC2)nc(-c2cc(Cl)cc(Cl)c2)n1 (stereo not drawn) [Example 77]
>4	CCCCNc1cc(C(C)C)nc(-c2cc(Cl)cc(Cl)c2)n1.Cl [Example 79]

n-fold stimulation at c = 50 μM [n-fold]	Structure (SMILES)
>16	CCN(CC)c1cc(C(C)C)nc(-c2cc(Cl)cc(Cl)c2)n1 [Example 80]
>4	CC(C)c1cc(N2CCOCC2)nc(-c2cc(Cl)cc(Cl)c2)n1 [Example 81]
>4	CC(C)c1cc(N2CCSCC2)nc(-c2cc(Cl)cc(Cl)c2)n1 [Example 82]
>16	CCCN(CCC)c1cc(C(C)C)nc(-c2cc(Cl)cc(Cl)c2)n1 [Example 84]
>16	CCCN(CCC)c1cc(C(C)C)nc(-c2ccc(C)cc2)n1 [Example 85]
>16	CCN(CC)c1cc(C(C)C)nc(-c2ccc(C)cc2)n1.Cl [Example 86]
>8	CCCCNc1cc(C(C)C)nc(-c2ccc(C)cc2)n1 [Example 88]
>8	Cc1ccc(-c2nc(C(C)C)cc(N3CCOCC3)n2)cc1 [Example 89]
>16	Cc1ccc(-c2nc(C(C)C)cc(N3CCSCC3)n2)cc1 [Example 90]
>16	Cc1ccc(-c2nc(C(C)C)cc(N3C[C@@H](C)O[C@@H](C)C3)n2)cc1 [Example 97]
>8	COCCN(CCOC)c1cc(C(C)C)nc(-c2ccc(C)cc2)n1 [Example 98]
>4	Cc1ccc(-c2nc(C(C)C)cc(N3CCC(C(N)=O)CC3)n2)cc1 [Example 99]
>8	Cc1ccc(-c2nc(C(C)C)cc(N3CCCCCC3)n2)cc1 [Example 100]
>8	Clc1ccc(-c2nc(-c3ccccc3)cc(N3CCCCCC3)n2)cc1 [Example 112]
>16	CC(C)c1cc(NC2CCCC2)nc(-c2ccc(Cl)cc2)n1 [Example 124]
32	CC(C)c1cc(N[C@H]2CC[C@H](O)CC2)nc(-c2ccc(Cl)cc2)n1 [Example 125]
>16	CC(C)(C)c1cc(N[C@H]2CC[C@H](O)CC2)nc(-c2ccc(Cl)cc2)n1 [Example 133]
>16	CC(C)c1cc(NCCCCO)nc(-c2ccc(Cl)cc2)n1 [Example 137]

Tested on: not given
Assay: not given
Conditions: not given

melting point [°C]	Structure (SMILES)
226	CC(C)c1cc(N2CCS(=O)(=O)CC2)nc(-c2ccc(Cl)cc2)n1 [Example 145, 2-(4-Chlorophenyl)-6-isopropyl-4-(1,1-dioxothiomorpholino)pyrimidine]
128	CC(C)c1cc([SH]2(=O)CCNC2)nc(-c2ccc(Cl)cc2)n1 [Example 146, 2-(4-Chlorophenyl)6-isopropyl-4-(1-oxo-1,3-thiazolidin-1-yl)pyrimidine]
103	CC[S+]([O-])CCNc1cc(C(C)C)nc(-c2ccc(Cl)cc2)n1 (stereo not drawn) [Example 147, 2-(4-Chlorophenyl)-4-((2-ethylsulfinylethyl)amino)-6-isopropylpyrimidine]
152	Cc1ccc(-c2nc(C(C)C)cc(N3CC[S+]([O-])CC3)n2)cc1 [Example 148, 6-Isopropyl-2-(4-methylphenyl)-4-(1-oxothiomorpholino)pyrimidine]
187	CC(C)c1cc(N2CC[S+]([O-])CC2)nc(-c2cc(Cl)cc(Cl)c2)n1 [Example 149, 2-(3,5-dichlorophenyl)-6-isopropyl-4-(1-oxothiomorpholino)pyrimidine]
